# Test results from EP2654730B1, “HIGH DRUG LOAD PHARMACEUTICAL FORMULATIONS COMPRISING DRONEDARONE AND ITS PHARMACEUTICALLY ACCEPTABLE SALTS” (KRKA, d.d., Novo mesto, priority 2010, dated 2012).
# Counter-ions that a name gives are not always drawn.
# What was measured:
# [1] = Specific surface area of dronedarone HCl particles (BET method); assay type: physicochemical; settings: particles after crystallization and Jetmill MC-50 micronization
# Excerpt: The specific surface area can be determined using the BET method.
# [2] = Particle size d90 by laser light scattering (Malvern Mastersizer MS 2000); assay type: physicochemical; settings: particles after crystallization and Jetmill MC-50 micronization
# Excerpt: As used herein d90<x means that at least 90% by volume of the particles have a particle size below x. The particle size can be determined by laser light scattering for instance using a Malvern Mastersizer Apparatus MS 2000 equipped with a Hydro S dispersion unit. Silicon fluid F10 may be used as dispersion medium.
# [3] = Dissolution test of Dronedarone HCl 400 mg tablets (Apparatus 2 paddle); assay type: physicochemical; settings: at 60 minutes, paddle 75 rpm, 1000 ml Buffer Solution pH 4.5
# Experimental: The dissolution profiles of several of the pharmaceutical compositions exemplified above are determined.
# Dissolution conditions for Dronedarone HCl 400 mg tablets: • Apparatus: 2 - Paddle (USP and Ph. Eur.) • Rotation speed: 75 rpm • Medium: 1000 ml Buffer Solution pH 4.5
# API 1 or API 2 was included in the pharmaceutical composition as disclosed in example 17.
# The pharmaceutical compositions used in dissolution test shown in Figure 2 comprised different surfactants or no surfactant. The pharmaceutical compositions were prepared according to examples 16A-D, 17A and 18A by using API 1, API 2 or API 3.
# [4] = aqueous media, pH 3-5 (maximal); cited from earlier work
Structure (SMILES),Specific surface area [1] [m^2/g],Particle size d90 [2] [µm],"dissolution rate ([3]; compositions of examples 16A-D, 17A and 18A, compared with compositions prepared from API 2 or API 3)","dissolution rate ([3]; tablet composition of example 17, compared with same composition prepared from API 2)",solubility [4] [mg/mL]
CCCCc1oc2ccc(NS(C)(=O)=O)cc2c1C(=O)c1ccc(OCCCN(CCCC)CCCC)cc1.Cl [API 1],8.3,5.1,substantial lower dissolution rate,substantial lower dissolution rate,–
CCCCc1oc2ccc(NS(C)(=O)=O)cc2c1C(=O)c1ccc(OCCCN(CCCC)CCCC)cc1.Cl [API 2],6.2,7.1,–,–,–
CCCCc1oc2ccc(NS(C)(=O)=O)cc2c1C(=O)c1ccc(OCCCN(CCCC)CCCC)cc1.Cl [API 3],6.0,7.4,–,–,–
"CCCCc1oc2ccc(NS(C)(=O)=O)cc2c1C(=O)c1ccc(OCCCN(CCCC)CCCC)cc1 [dronedarone hydrochloride, N-(2-butyl-3-(p-(3-(dibutylamino)propoxy)benzoyl)-5-benzofuranyl)methanesulfonamide]",–,–,–,–,1 to 2
